Calls of active or inactive are those of the source.
Columns and labels:
[1] = nonselective inhibitors of cellular cAMP signaling, dose response, counter-screen for MC4R biased antagonist project, cell-based, TR-FRET cAMP detection (AID 602305); type: functional;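 note: U2OS cells stimulated with forskolin near its EC80 as the cAMP inducer; potency is for inhibition of forskolin-stimulated cAMP signaling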
Melanocortin receptor 4 [2] = molecular target: T1, Melanocortin receptor 4 (Homo sapiens, UniProt P32245); test: MC4R antagonist potency on cAMP, dose response, cell-based, TR-FRET, biased antagonists (AID 602298); type: functional;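 note: antagonist potency against agonist-stimulated cAMP production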
[3] = molecular target: Heat shock protein HSP 90-alpha (Homo sapiens, UniProt P07900); type: functional, organism-based
[4] = molecular target: T2, DNA repair protein RAD52 homolog (Homo sapiens, UniProt P43351); type: functional, biochemical
T2 sequence (P43351 whole entry): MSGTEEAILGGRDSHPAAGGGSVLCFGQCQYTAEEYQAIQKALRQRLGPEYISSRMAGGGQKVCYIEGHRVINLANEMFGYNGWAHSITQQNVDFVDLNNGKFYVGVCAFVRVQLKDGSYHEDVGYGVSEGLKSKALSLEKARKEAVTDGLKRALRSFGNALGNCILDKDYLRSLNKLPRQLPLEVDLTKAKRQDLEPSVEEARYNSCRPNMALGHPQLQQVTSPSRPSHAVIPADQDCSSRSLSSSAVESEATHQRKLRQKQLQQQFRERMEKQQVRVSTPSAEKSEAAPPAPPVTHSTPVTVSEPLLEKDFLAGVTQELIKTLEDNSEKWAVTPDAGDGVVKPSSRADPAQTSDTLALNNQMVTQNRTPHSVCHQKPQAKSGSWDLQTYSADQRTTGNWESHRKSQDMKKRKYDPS

Melanocortin receptor 4 [5] = molecular target: T1, Melanocortin receptor 4; type: functional, cell-based
cells = type: functional, cell-based; settings: HEK-CNG
[6] = HepG2 cell cytotoxicity, dose response, cytotoxicity control for Shn3 inhibitor project, CellTiter-Glo, cherry-picked (AID 624134); type: functional, cell-based
[7] = control 3'UTR Renilla luciferase suppression, dose response, counter-screen for Shn3 inhibitor project, cell-based, Clone20-Shn3RL, cherry-picked (AID 624133); type: functional
[8] = Shn3 3'UTR reporter inhibitors, dose response, cell-based, Clone20 osteoblasts, firefly luciferase, cherry-picked (AID 624132); type: functional;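 note: firefly luciferase luminescence from reporter carrying the Shn3 3'UTR in osteoblasts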
Galanin receptor type 3 = Galanin receptor type 3 (Homo sapiens, UniProt O60755); test: Fluorescence-based cell-based primary high throughput dose response assay to identify antagonists of the Galanin Receptor 3 (GalR3).; type: functional
[9] = molecular target: T3, Mitochondrial peptide methionine sulfoxide reductase (Bos taurus, UniProt P54149); type: functional;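 note: absorbance read-out, biochemical high-throughput dose-response screen for MsrA inhibitors, confirmatory; recombinant bovine MsrA coupled to E. coli TrxB with NADPH and selenocystamine; potency is for inhibitors of MsrA activity on DMSO substrate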
T3 sequence (P54149 whole entry): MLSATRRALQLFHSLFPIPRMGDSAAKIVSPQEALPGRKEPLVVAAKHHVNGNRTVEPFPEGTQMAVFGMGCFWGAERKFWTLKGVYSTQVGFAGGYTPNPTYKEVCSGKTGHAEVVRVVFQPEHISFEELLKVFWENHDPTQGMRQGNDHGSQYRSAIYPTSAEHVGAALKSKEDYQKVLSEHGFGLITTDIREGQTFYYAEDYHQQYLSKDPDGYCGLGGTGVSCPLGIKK

[10] = molecular target: T4, High affinity choline transporter 1 (Homo sapiens, UniProt Q9GZV3); test: CHT inhibitors, dose response, cell-based, 5-point CRC, membrane potential dye (AID 504840); type: functional
T4 sequence (Q9GZV3 whole entry): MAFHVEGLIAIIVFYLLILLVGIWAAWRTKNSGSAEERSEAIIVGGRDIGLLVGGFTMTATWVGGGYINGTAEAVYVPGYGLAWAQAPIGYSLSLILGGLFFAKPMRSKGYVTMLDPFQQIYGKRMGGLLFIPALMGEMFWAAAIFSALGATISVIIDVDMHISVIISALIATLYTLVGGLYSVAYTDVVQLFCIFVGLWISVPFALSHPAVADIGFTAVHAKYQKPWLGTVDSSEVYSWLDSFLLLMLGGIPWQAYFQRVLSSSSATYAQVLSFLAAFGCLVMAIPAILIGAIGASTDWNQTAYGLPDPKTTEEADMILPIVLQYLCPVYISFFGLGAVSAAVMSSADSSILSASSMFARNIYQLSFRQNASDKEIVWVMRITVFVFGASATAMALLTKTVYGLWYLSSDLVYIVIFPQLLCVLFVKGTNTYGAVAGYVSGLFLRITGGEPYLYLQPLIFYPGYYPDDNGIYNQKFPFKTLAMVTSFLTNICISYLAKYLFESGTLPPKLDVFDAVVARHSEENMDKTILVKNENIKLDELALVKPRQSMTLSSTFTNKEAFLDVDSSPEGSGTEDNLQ

[11] = inhibitors of clade B AD8 Env fusion, dose response, cell-based, cherry-pick (AID 652062); type: functional;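 note: luciferase signal from cell-cell fusion driven by HIV-1 clade B AD8 Env; potency is for inhibitors of fusion seen as a drop in luminescence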
[12] = molecular target: T4, High affinity choline transporter 1; test: CHT inhibitors, dose response, cell-based, 10-point CRC, membrane potential dye (AID 588401); type: functional;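 note: membrane potential dye fluorescence of choline-evoked depolarization via CHT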

T1 sequence (P32245 whole entry): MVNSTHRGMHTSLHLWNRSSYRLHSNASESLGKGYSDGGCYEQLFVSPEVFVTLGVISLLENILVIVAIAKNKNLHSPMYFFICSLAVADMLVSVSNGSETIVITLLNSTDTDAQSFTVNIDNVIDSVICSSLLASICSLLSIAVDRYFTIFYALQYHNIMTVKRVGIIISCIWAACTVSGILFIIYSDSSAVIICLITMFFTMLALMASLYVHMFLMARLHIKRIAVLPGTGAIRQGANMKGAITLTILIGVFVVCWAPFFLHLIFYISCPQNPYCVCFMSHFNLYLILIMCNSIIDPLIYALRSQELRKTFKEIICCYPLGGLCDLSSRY
Sequence of Galanin receptor type 3 (O60755 whole entry): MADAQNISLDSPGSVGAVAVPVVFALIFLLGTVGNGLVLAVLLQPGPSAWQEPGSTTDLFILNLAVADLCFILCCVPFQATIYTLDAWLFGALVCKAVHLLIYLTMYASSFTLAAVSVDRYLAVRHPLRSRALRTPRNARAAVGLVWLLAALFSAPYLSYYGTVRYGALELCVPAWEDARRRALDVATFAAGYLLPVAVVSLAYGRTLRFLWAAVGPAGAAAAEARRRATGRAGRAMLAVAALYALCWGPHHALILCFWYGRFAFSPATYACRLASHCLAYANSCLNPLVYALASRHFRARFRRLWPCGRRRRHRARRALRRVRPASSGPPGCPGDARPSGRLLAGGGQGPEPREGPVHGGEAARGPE

For O=C(CSc1c2c(nc3cc(Cl)ccc13)CCCC2)NCCN1CCOCC1, the IC50 [1] was > 64.6 µM (inactive) and the IC50 (Melanocortin receptor 4 [2]) was > 64.6 µM (inactive).

For CCCCCCCCCCCCCCCC[n+]1cccc(C(=O)N(CC)CC)c1, the AC50 [3] was 9.18 µM (active), the AC50 [4] was 5.29 µM (active) and the EC50 (Melanocortin receptor 4 [5]) was > 89.2 µM (inactive).

For CC(=O)OC[C@]12CC[C@H]3[C@@](C)(CC[C@H]4C(C)(C)CCC[C@]34C)[C@@H]1CC(C1=CC(=O)OC1O)O2 (stereo partly specified), the EC50 (cells) was > 29.9 µM (inactive), the IC50 [1] was 55 µM (inactive) and the AC50 [6] was 8.6 µM (active). The AC50 [7] was 3.12 µM (active), the AC50 [8] was 0.634 µM (active) and the IC50 (Galanin receptor type 3) was > 1.11 µM (active). For the same compound, the IC50 (Melanocortin receptor 4 [2]) was 15.2 µM (inactive).

In the case of Cc1cc(C(=O)N/N=C/C=C/c2ccc([N+](=O)[O-])cc2)[nH]n1, the IC50 [9] is reported as 155 µM (inactive).

For Cc1cc(Cl)c(S(=O)(=O)N2CCCC2)cc1OCC(=O)NC1CCCCC1, the IC50 [10] was 4.68 µM (active), the AC50 [11] was 18.1 µM (active) and the IC50 [12] was 4.47 µM (active).
